Results on 3 compounds are retold here after patent US20260274814A1, “THIENYL COMPOUNDS FOR THE TREATMENT OF A CENTRAL NERVOUS SYSTEM DISEASE OR DISORDER” (Coreterra Therapeutics, Inc., priority 2023, published 2026).

The test relates to mice. As to the kind of experiment: Neuropharmacological Assay (SmartCube): automated behavioral signature of compound-treated mice compared with a database of reference drug classes. Type of test: in vivo. As to conditions: for minimal effective dose: Mus musculus, ip, i.p., if only one dose was tested, that dose is shown. Summed up:
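Mice dosed i.p. 15 min before SmartCube testing, with compound in N-methyl-2-pyrrolidone/polyethylene glycol/propylene glycol. Video-captured behaviour is compared with a reference-drug signature database to give per-class probabilities, reported at 3.0 mg/kg. MED, from doses usually 0.3–10 mg/kg, is the lowest dose giving ≥45% total activity.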

The mark [1] stands for this setting: probability that activity matches this class of agents, 3.0 mg/kg i.p., 15 min before test.
The mark [2] stands for this setting: probability that activity matches this class of agents, 3.0 mg/kg i.p., 15 min before test, hydrochloride, 3 mg/kg.
Setting [3] is: minimal effective dose: dose having 45% or more total activity in SmartCube, read-out: MED.
The mark [4] stands for this setting: SmartCube probability class, 3.0 mg/kg dose, i.p. 15 min before the behavioral test.
Where [5] appears, read: SmartCube probability class, 3.0 mg/kg dose, i.p. 15 min before the behavioral test, hydrochloride, 3 mg/kg.

Structures can show the parent of a compound that is named as a salt. Where two headings read alike, the source gives them in different places.

As for `CC1(N)CCc2cscc2C1.Cl` (single isomer, unassigned) [Compound 122, 5-methyl-6,7-dihydro-4H-2-benzothiophen-5-amine hydrochloride], the minimal effective dose (dose having 45% or more total activity in SmartCube, read-out: MED (minimal effective dose)) is 1 mg/kg. Besides, under setting [1], the AG entry was “ND (^ <4%)”, the AN result is given as “ND (^ <4%)”, the AP entry is listed as “ND (^ <4%)” and the CE entry is “ND (^ <4%)”. Under setting [1], the MS result is on record as “ND (^ <4%)”, the SH result is listed as “ND (^ <4%)” and the UK entry is on record as “ND (^ <4%)”. Under setting [2], the AD result is “+++ (≥49%)”, the AX result is listed as “+ (≥4%)”, the HL entry is reported as “ND (^ <4%)” and the PS entry is recorded as “ND (^ <4%)”.
Regarding `CNC1Cc2cc(C)sc2C1` (single isomer, unassigned) [Compound 318, N, 2-dimethyl-5,6-dihydro-4H-cyclopenta[b]thiophen-5-amine hydrochloride], the minimal effective dose under setting [3] was determined as 3 mg/kg. Under setting [4], the AD entry was “ND (^ <4%)”, the AG entry is “ND (^ <4%)”, the AN entry was “ND (^ <4%)” and the HL entry is listed as “ND (^ <4%)”. Also, under setting [4], the MS entry is reported as “ND (^ <4%)”, the PS result is given as “ND (^ <4%)” and the SH entry is “ND (^ <4%)”. For the same compound, under setting [5], the AP entry was “+ (≥4%)”, the AX result is listed as “+ (≥4%)”, the CE result is on record as “ND (^ <4%)” and the UK entry is listed as “+++ (≥49%)”.
For the compound `CNC1COc2scc(C)c2C1` (stereo not drawn) [Compound 308, N, 5-dimethyl-3,4-dihydro-2H-thieno[2,3-b]pyran-3-amine hydrochloride], the minimal effective dose under setting [3] is below 3 mg/kg. For the same compound, under setting [4], the AD result is on record as “ND (^ <4%)”, the AG entry is recorded as “ND (^ <4%)”, the AN result is given as “ND (^ <4%)” and the AP entry is reported as “++++ (≥74%)”. Also, under setting [4], the AX entry is on record as “ND (^ <4%)”, the CE entry is on record as “ND (^ <4%)”, the HL result is “ND (^ <4%)” and the MS entry was “ND (^ <4%)”. In addition, under setting [4], the PS entry is “ND (^ <4%)”, the SH entry was “ND (^ <4%)” and the UK entry was “ND (^ <4%)”.
